Laboratory results as given in patent US11040028B2, “Penicinotam derivative, preparation method and use thereof” (OCEAN UNIVERSITY OF CHINA, priority 2017, dated 2021).

Legend:
Type in all cases: cell-based
[1] = tested on: NF-κB; assay: Immunological activity test: inhibition of NF-κB activity; settings: initial concentration of 30 μM; a/b isomers given as first/second symbol; read-out: IC50 (μM), inhibitory activity against NF-κB
From the text: Main references for immunological activity test of the compounds of the present application includes: Vogl, S.; Atanasov, A. G.; Binder, M.; Bulusu, M.; Zehl, M.; Fakhrudin, N.; Heiss, E. H.; Picker, P.; Wawrosch, C.; Saukel, J.; Reznicek, G.; Urban, E.; Bochkov, V.; Dirsch, V. M.; Kopp, B. J. Evid-Based Complementary Alern. Med. 2013, ID 395316. Commercially available parthenolide was utilized as a positive control.
The ability of the compounds of the present application to inhibit NF-κB activity was tested at an initial concentration of 30 μM.
The assay data for the compounds of the present application were further analyzed to determine their IC50 values.

[2] = tested on: human fibrosarcoma cells HT-1080; assay: Anti-fibrosis activity test: inhibition of proliferation of human fibrosarcoma cells HT-1080 (CCK-8); settings: Homo sapiens, HT-1080, 48 h
Outline: (§1)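 Proliferation read by CCK-8 (2 h, A450) after 48 h compound treatment of cells plated at 2×10^4 cells/mL and allowed 24 h attachment, triplicate per concentration. Inhibition rate derived from absorbance relative to untreated blank, with IC50 fitted; pirfenidone as positive control.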

[3] = tested on: human dermal fibroblasts CCC-ESF-1; assay: Anti-fibrosis activity test: inhibition of proliferation of human dermal fibroblasts CCC-ESF-1 (CCK-8); settings: Fibroblast
Outline: as §1

[4] = tested on: human embryonic lung fibroblast IMR-90; assay: Anti-fibrosis activity test: inhibition of proliferation of human embryonic lung fibroblast IMR-90 (CCK-8)
Outline: as §1

[5] = tested on: human hepatic stellate cells LX-2; assay: Anti-fibrosis activity test: inhibition of proliferation of human hepatic stellate cells LX-2 (CCK-8); settings: Homo sapiens, 48 h
Outline: as §1

[6] = tested on: cardiac fibroblast RAT-iCell-C002; assay: Anti-fibrosis activity test: inhibition of proliferation of cardiac fibroblast RAT-iCell-C002 (CCK-8); settings: Cardiac fibroblast, 48 h
Outline: as §1

[7] = tested on: human lung fibroblasts HFL1; assay: Anti-fibrosis activity test: inhibition of proliferation of human lung fibroblasts HFL1 (CCK-8); settings: Homo sapiens, HFL1, 48 h
Outline: as §1

[8] = tested on: BHK-21 cells; assay: Anti-fibrosis activity test: inhibition of BHK-21 cell proliferation (CCK-8); settings: Mesocricetus auratus, BHK-21, 48 h
Outline: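 Cells plated 2×10^4 cells/mL; 24 h attach; compound dilutions, triplicate, 48 h, 37° C/5% CO2; CCK-8 2 h; A450; IR = (1−Ai/Ao)×100%; IC50 by curve fit.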

[9] = tested on: mouse macrophages (RAW264.7); assay: Lipopolysaccharide-induced NO secretion in macrophages (Griess); settings: Mus musculus, RAW264.7, 24 h, RAW264.7, LPS 1 μg/ml, a/b isomers given as first/second symbol, read-out: IC50 (μM), inhibition of lipopolysaccharide-induced NO secretion in macrophages
Outline: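 Percent inhibition of NO release was measured by Griess absorbance at 548 nm in supernatants. Cells were mouse RAW264.7 macrophages in 10% FBS DMEM, treated with graded compound concentrations and activated by LPS (1 μg/ml) for 24 h.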

[10] = human fibrosarcoma cells HT-1080, CCK-8, 48 hours
[11] = human dermal fibroblasts CCC-ESF-1, CCK-8, 48 hours
[12] = human embryonic lung fibroblast IMR-90, CCK-8, 48 hours
[13] = human hepatic stellate cells LX-2, CCK-8, 48 hours
[14] = cardiac fibroblast RAT-iCell-C002, CCK-8, 48 hours
[15] = human lung fibroblasts HFL1, CCK-8, 48 hours
[16] = CCK-8, 48 hours after administration

IC50 [1] [µM]	IC50 [2, 10] [mM]	IC50 ([2]; HT-1080 cells, 48 h, CCK-8) [mM]	IC50 [9] [µM]	SMILES	IC50 [3, 11] [mM]	IC50 [4, 12] [mM]	IC50 [5, 13] [mM]	IC50 [6, 14] [mM]	IC50 [7, 15] [mM]	IC50 [8, 16] [mM]	IC50 ([3]; Homo sapiens, CCC-ESF-1 cells, 48 h, CCK-8) [mM]	IC50 ([4]; Homo sapiens, IMR-90 cells, 48 h, CCK-8) [mM]	IC50 ([5]; LX-2, 48 h, LX-2 cells, CCK-8) [mM]	IC50 ([6]; RAT-iCell-C002 cells, CCK-8) [mM]	IC50 ([7]; HFL1 cells, 48 h, CCK-8) [mM]	IC50 ([8]; 48 h, CCK-8) [mM]
0.1 to 1	–	–	–	O=C1c2c(nc3cc(N4CCNCC4)ccc3c2OCc2cc(C(F)(F)F)cc(C(F)(F)F)c2)-c2cccn21 [Compound 631b, 9-((3,5-bis(trifluoromethyl)benzyl)oxy)-6-(piperazin-1-yl)-10H-pyrrolizino[,2-b]quinolin-10-one]	–	–	–	–	–	–	–	–	–	–	–	–
1 to 10	0.05 to 5	–	–	O=C1c2c(nc3ccc(F)cc3c2OCc2cc(C(F)(F)F)cc(C(F)(F)F)c2)-c2cccn21 [Compound 623b, 9-((3,5-bis(trifluoromethyl)benzyl)oxy)-7-fluoro-10H-pyrrolizino[1,2-b]quinolin-10-one]	0.05 to 5	0.05 to 5	0.05 to 5	0.05 to 5	0.05 to 5	0.05 to 5	–	–	–	–	–	–
1 to 10	0.05 to 5	–	–	N#Cc1ccc2c(c1)c(=O)c1c(n2Cc2ccc(-c3ccccc3)cc2)-c2cccn2C1=O [Compound 628a, 4-([1,1′-Biphenyl]-4-ylmethyl)-9,10-dioxo-4,10-dihydro-9H-pyrrolizino[1,2-b]quinoline-7-carbonitrile]	0.05 to 5	0.05 to 5	0.05 to 5	0.05 to 5	5 to 20	0.05 to 5	–	–	–	–	–	–
0.1 to 1	0.05 to 5	–	–	O=C1c2c(n(-c3ccc(Cl)cc3)c3ccccc3c2=O)-c2cccn21 [Compound 34a, 4-(4-Chlorophenyl)-9H-pyrrolizino[1,2-b]quinoline-9,10(4H)-dione]	5 to 20	0.05 to 5	0.05 to 5	0.05 to 5	0.05 to 5	< 0.05	–	–	–	–	–	–
1 to 10	5 to 20	–	–	N#Cc1ccc2c(OCc3cccc(F)c3)c3c(nc2c1)-c1cccn1C3=O [Compound 515b, 9-((3-fluorobenzyl)oxy)-10-oxo-10H-pyrrolizino[1,2-b]quinoline-6-carbonitrile]	0.05 to 5	5 to 20	0.05 to 5	< 0.05	0.05 to 5	0.05 to 5	–	–	–	–	–	–
0.1 to 1	0.05 to 5	–	–	O=C1c2c(n(Cc3ccc(F)cc3)c3ccc(F)cc3c2=O)-c2cccn21 [Compound 617a, 7-Fluoro-4-(4-fluorobenzyl)-9H-pyrrolizino[1,2-b]quinoline-9,10(4H)-dione]	0.05 to 5	0.05 to 5	0.05 to 5	0.05 to 5	0.05 to 5	< 0.05	–	–	–	–	–	–
1 to 10	0.05 to 5	–	–	O=C1c2c(n(Cc3ccc(F)cc3F)c3cc(N4CCNCC4)ccc3c2=O)-c2cccn21 [Compound 622a, 4-(2,4-Difluorobenzyl)-6-(piperazin-1-yl)-9H-pyrrolizino[1,2-b]quinoline-9,10(4H)-dione]	0.05 to 5	0.05 to 5	–	0.05 to 5	0.05 to 5	0.05 to 5	–	–	–	–	–	–
0.1 to 1	0.05 to 5	–	–	N#Cc1ccc2c(OCc3ccccc3F)c3c(nc2c1)-c1cccn1C3=O [Compound 516b, 9-((2-fluorobenzyl)oxy)-10-oxo-10H-pyrrolizino[1,2-b]quinoline-6-carbonitrile]	0.05 to 5	0.05 to 5	0.05 to 5	0.05 to 5	0.05 to 5	0.05 to 5	–	–	–	–	–	–
1 to 10	0.05 to 5	–	–	N#Cc1ccc2nc3c(c(OCc4ccc(-c5ccccc5)cc4)c2c1)C(=O)n1cccc1-3 [Compound 628b, 9-([1,1′-biphenyl]-4-ylmethoxy)-10-oxo-10H-pyrrolizino[1,2-b]quinoline-7-carbonitrile]	0.05 to 5	0.05 to 5	0.05 to 5	0.05 to 5	0.05 to 5	0.05 to 5	–	–	–	–	–	–
1 to 10	0.05 to 5	–	–	N#Cc1ccc2nc3c(c(OCc4ccc(Cl)cc4)c2c1)C(=O)n1cccc1-3 [Compound 625b, 9-((4-chlorobenzyl)oxy)-10-oxo-10H-pyrrolizino[1,2-b]quinoline-7-carbonitrile]	0.05 to 5	0.05 to 5	0.05 to 5	0.05 to 5	0.05 to 5	0.05 to 5	–	–	–	–	–	–
10 to 50	5 to 20	–	–	CC(C)Oc1c2c(nc3ccccc13)-c1cccn1C2=O [Compound 5b, 9-isopropoxy-10H-pyrrolizino[1,2-b]quinolin-10-one]	0.05 to 5	0.05 to 5	5 to 20	0.05 to 5	0.05 to 5	0.05 to 5	–	–	–	–	–	–
1 to 10	0.05 to 5	–	–	O=C1c2c(nc3cc(N4CCNCC4)ccc3c2OCc2ccc(F)cc2F)-c2cccn21 [Compound 622b, 9-((2,4-difluorobenzyl)oxy)-6-(piperazin-1-yl)-10H-pyrrolizino[1,2-b]quinolin-10-one]	0.05 to 5	0.05 to 5	–	0.05 to 5	–	0.05 to 5	–	–	–	–	–	–
–	–	0.05 to 5	1 to 10	Cc1cc(C)c2c(O)c3c(nc2c1)C(=O)n1cccc1-3 [Compound 782b, 11-hydroxy-8,10-dimethyl-5H-pyrrolizino[2,1-b]quinolin-5-one]	–	–	–	–	–	–	0.05 to 5	0.05 to 5	0.05 to 5	0.05 to 5	0.05 to 5	0.05 to 5
–	0.05 to 5	–	1 to 10	C=CCn1c2c(c(=O)c3cc(F)c(N4CCNCC4)cc31)C(=O)n1cccc1-2 [Compound 349a, 4-Allyl-7-fluoro-6-(piperazin-1-yl)-9H-pyrrolizino[1,2-b]quinoline-9,10(4H)-dione]	0.05 to 5	0.05 to 5	0.05 to 5	0.05 to 5	0.05 to 5	0.05 to 5	–	–	–	–	–	–
–	0.05 to 5	–	10 to 50	N#Cc1cccc2nc3c(c(OCc4ccccc4F)c12)C(=O)n1cccc1-3 [Compound 469b, 9-((2-fluorobenzyl)oxy)-10-oxo-10H-pyrrolizino[1,2-b]quinoline-8-carbonitrile]	0.05 to 5	0.05 to 5	0.05 to 5	0.05 to 5	0.05 to 5	0.05 to 5	–	–	–	–	–	–
–	0.05 to 5	–	1 to 10	O=C1c2c(nc3ccc(F)cc3c2OCCO)-c2cccn21 [Compound 114b, 7-fluoro-9-(2-hydroxyethoxy)-10H-pyrrolizino[1,2-b]quinolin-10-one]	0.05 to 5	0.05 to 5	0.05 to 5	0.05 to 5	0.05 to 5	0.05 to 5	–	–	–	–	–	–
–	0.05 to 5	–	1 to 10	CC(C)=CCn1c2c(c(=O)c3cc(F)c(N4CCNCC4)cc31)C(=O)n1cccc1-2 [Compound 354a, 7-Fluoro-4-(3-methylbut-2-en-1-yl)-6-(piperazin-1-yl)-9H-pyrrolizino[1,2-b]quinoline-9,10(4H)-dione]	0.05 to 5	0.05 to 5	5 to 20	< 0.05	0.05 to 5	0.05 to 5	–	–	–	–	–	–
–	0.05 to 5	–	1 to 10	N#Cc1ccc2c(c1)c(=O)c1c(n2-c2ccc(F)cc2)-c2cccn2C1=O [Compound 199a, 4-(4-Fluorophenyl)-9,10-dioxo-4,10-dihydro-9H-pyrrolizino[1,2-b]quinoline-7-carbonitrile]	0.05 to 5	0.05 to 5	0.05 to 5	0.05 to 5	0.05 to 5	< 0.05	–	–	–	–	–	–
–	0.05 to 5	–	1 to 10	O=C1c2c(nc3ccc(OC(F)(F)F)cc3c2Oc2ccc(Cl)cc2)-c2cccn21 [Compound 300b, 9-(4-chlorophenoxy)-7-(trifluoromethoxy)-10H-pyrrolizino[1,2-b]quinolin-10-one]	0.05 to 5	0.05 to 5	0.05 to 5	0.05 to 5	0.05 to 5	0.05 to 5	–	–	–	–	–	–
